This passage reports IC50 results from patent publication US9834534B2, “Neuraminidase inhibitor compounds, compositions and methods for the use thereof in anti-viral treatments” (THE UNIVERSITY OF BRITISH COLUMBIA, priority 2009, dated 2017).

For one assay, the system named is Sol Isl sH1N1 E119A. Type of assay: cell-based, influenza A virus.
In another assay the test system is Auckland pH1N1 E119K. Type of assay: cell-based, influenza A virus. The settings on record: pH 1.
A further assay has as its system Fukui H3N2 E119V. Type of assay: cell-based, influenza A virus.
The subject of the next assay is sH1N1/01 H274Y. Type of assay: cell-based, influenza A virus. To be noted: read-out: IC50 sH1N/01 H274Y.
The subject of the next assay is B/Perth D197E. Type of assay: cell-based, influenza B virus. The settings on record: read-out: sensitivity to inhibitors, B/Perth D197E.
Assay [1] relates to B/Florida E119D (B/Florida/4/2006 mutant 1 E117D). Type of assay: cell-based, influenza B virus.
The subject of the next assay is sH1N1/08 H274Y. Type of assay: cell-based, influenza A virus.

For `CC(=O)N[C@@H]1C(NC(=N)N)C(F)[C@](F)(C(=O)O)OC1[C@H](O)[C@H](O)CO` (stereo partly drawn) [Compound 12, (2R,3R)-4-Guanyl-2,4-dideoxy-2,3-difluorosialic acid], the IC50 is […] with Sol Isl sH1N1 E119A; […] in the assay with Auckland pH1N1 E119K; 998000 nM in the assay on Fukui H3N2 E119V; 217 nM in the assay on sH1N1/01 H274Y; 162 nM in the assay with B/Perth D197E.

As for `CC(=O)N[C@H]1[C@H]([C@H](O)[C@H](O)CO)OC(C(=O)O)=C[C@@H]1N=C(N)N` [Zanamivir, reference compound], the IC50 in assay [1] was more than 10000 nM; in the assay on Sol Isl sH1N1 E119A, more than 10000 nM; in the assay on Auckland pH1N1 E119K it was more than 100000 nM; with Fukui H3N2 E119V, 3400 nM; in the assay on sH1N1/08 H274Y, 2 nM; in the assay on B/Perth D197E it was 258 nM.

For `CC(=O)NC1C(NC(=N)N)C(F)C(F)(C(=O)O)OC1[C@H](O)[C@H](O)CO` (stereo partly drawn) [4-G3Feq diF SA, 5-Acetamido-2,4,5-trideoxy-2α, 3β-difluoro-4-guanidino-α-D-erythro-L-gluco-nonulopyranosonate], the IC50 was […] with Auckland pH1N1 E119K, 2400 nM in the assay on Fukui H3N2 E119V, 43.5 nM with sH1N1/01 H274Y and 8 nM in the assay with B/Perth D197E.

As to `CCOC(=O)C1=C[C@@H](OC(CC)CC)[C@H](NC(C)=O)[C@@H](N)C1` [Oseltamivir], the IC50 in assay [1] was 1200 nM; with Sol Isl sH1N1 E119A, 419 nM; in the assay with Auckland pH1N1 E119K, 147 nM; in the assay on Fukui H3N2 E119V, 260000 nM; with sH1N1/01 H274Y it was 2440 nM; in the assay on sH1N1/08 H274Y it was 2000 nM.
